{
  "source": "PubChem BioAssay (NCI)",
  "test_in_all_cases": "NCI-60 cell line screen, 384-well format",
  "key": {"[1]": {"tested_on": "786-0 renal"}, "[2]": {"tested_on": "A498 renal"}, "[3]": {"tested_on": "A549 NSCLC"}, "[4]": {"tested_on": "ACHN renal"}, "[5]": {"tested_on": "BT-549 breast"}, "[6]": {"tested_on": "CAKI-1 renal"}, "[7]": {"tested_on": "CCRF-CEM leukemia"}, "[8]": {"tested_on": "EKVX NSCLC"}, "[9]": {"tested_on": "HCC-2998 colon"}, "[10]": {"tested_on": "HCT-15 colon"}, "[11]": {"tested_on": "HL-60(TB) leukemia"}, "[12]": {"tested_on": "HOP-62 NSCLC"}, "[13]": {"tested_on": "HOP-92 NSCLC"}, "[14]": {"tested_on": "HS 578T breast"}, "[15]": {"tested_on": "HT29 colon"}, "[16]": {"tested_on": "IGROV1 ovarian"}, "[17]": {"tested_on": "K-562 leukemia"}, "[18]": {"tested_on": "MCF7 breast"}, "[19]": {"tested_on": "MDA-MB-231 breast"}, "[20]": {"tested_on": "MDA-MB-435 melanoma"}, "[21]": {"tested_on": "MDA-MB-468 breast"}, "[22]": {"tested_on": "MOLT-4 leukemia"}, "[23]": {"tested_on": "NCI-H226 lung"}, "[24]": {"tested_on": "NCI-H23 lung"}, "[25]": {"tested_on": "NCI-H322M lung"}, "[26]": {"tested_on": "NCI-H460 NSCLC"}, "[27]": {"tested_on": "NCI-H522 lung"}, "[28]": {"tested_on": "NCI/ADR-RES ovarian"}, "[29]": {"tested_on": "OVCAR-3 ovarian"}, "[30]": {"tested_on": "OVCAR-4 ovarian"}, "[31]": {"tested_on": "OVCAR-5 ovarian"}, "[32]": {"tested_on": "OVCAR-8 ovarian"}, "[33]": {"tested_on": "PC-3 prostate"}, "[34]": {"tested_on": "RPMI-8226 leukemia"}, "[35]": {"tested_on": "SF-268 CNS"}, "[36]": {"tested_on": "SF-295 CNS"}, "[37]": {"tested_on": "SF-539 CNS"}, "[38]": {"tested_on": "SK-MEL-5 melanoma"}, "[39]": {"tested_on": "SK-OV-3 ovarian"}, "[40]": {"tested_on": "SN12C renal"}, "[41]": {"tested_on": "SNB-19 CNS"}, "[42]": {"tested_on": "SNB-75 CNS"}, "[43]": {"tested_on": "SR leukemia"}, "[44]": {"tested_on": "SW-620 colon"}, "[45]": {"tested_on": "T-47D breast"}, "[46]": {"tested_on": "TK-10 renal"}, "[47]": {"tested_on": "U251 glioblastoma"}, "[48]": {"tested_on": "UO-31 renal"}},
  "note": "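GI50: concentration for 50% inhibition of growth. The concentration for full growth arrest is given as TGI.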",
  "data": [
    {"smiles": "Cc1ncc(CCCN(C)C)cc1Nc1ncc2c(n1)-c1ccc(C(F)(F)F)cc1NC(=S)C2", "values": [
      {"measurement": "GI50", "setting": "[1]", "result": "< 10", "unit": "nM"},
      {"measurement": "TGI", "setting": "[1]", "result": 305, "unit": "nM"},
      {"measurement": "GI50", "setting": "[2]", "result": "< 10", "unit": "nM"},
      {"measurement": "TGI", "setting": "[2]", "result": 12700, "unit": "nM"},
      {"measurement": "GI50", "setting": "[3]", "result": "< 10", "unit": "nM"},
      {"measurement": "TGI", "setting": "[3]", "result": 170, "unit": "nM"},
      {"measurement": "GI50", "setting": "[4]", "result": 44.4, "unit": "nM"},
      {"measurement": "TGI", "setting": "[4]", "result": 15300, "unit": "nM"},
      {"measurement": "GI50", "setting": "[5]", "result": "< 10", "unit": "nM"},
      {"measurement": "TGI", "setting": "[5]", "result": 37.1, "unit": "nM"},
      {"measurement": "GI50", "setting": "[6]", "result": 59.2, "unit": "nM"},
      {"measurement": "TGI", "setting": "[6]", "result": 12900, "unit": "nM"},
      {"measurement": "GI50", "setting": "[7]", "result": "< 10", "unit": "nM"},
      {"measurement": "TGI", "setting": "[7]", "result": "< 10", "unit": "nM"},
      {"measurement": "GI50", "setting": "[8]", "result": 11.6, "unit": "nM"},
      {"measurement": "TGI", "setting": "[8]", "result": 17800, "unit": "nM"},
      {"measurement": "GI50", "setting": "[9]", "result": "< 10", "unit": "nM"},
      {"measurement": "TGI", "setting": "[9]", "result": 13.9, "unit": "nM"},
      {"measurement": "GI50", "setting": "[10]", "result": "< 10", "unit": "nM"},
      {"measurement": "TGI", "setting": "[10]", "result": 35.1, "unit": "nM"},
      {"measurement": "GI50", "setting": "[11]", "result": "< 10", "unit": "nM"},
      {"measurement": "TGI", "setting": "[11]", "result": "< 10", "unit": "nM"},
      {"measurement": "GI50", "setting": "[12]", "result": "< 10", "unit": "nM"},
      {"measurement": "TGI", "setting": "[12]", "result": 37, "unit": "nM"},
      {"measurement": "GI50", "setting": "[13]", "result": "< 10", "unit": "nM"},
      {"measurement": "TGI", "setting": "[13]", "result": 6280, "unit": "nM"},
      {"measurement": "GI50", "setting": "[14]", "result": "< 10", "unit": "nM"},
      {"measurement": "TGI", "setting": "[14]", "result": 21.5, "unit": "nM"},
      {"measurement": "GI50", "setting": "[15]", "result": "< 10", "unit": "nM"},
      {"measurement": "TGI", "setting": "[15]", "result": "< 10", "unit": "nM"},
      {"measurement": "GI50", "setting": "[16]", "result": "< 10", "unit": "nM"},
      {"measurement": "TGI", "setting": "[16]", "result": 16100, "unit": "nM"},
      {"measurement": "GI50", "setting": "[17]", "result": "< 10", "unit": "nM"},
      {"measurement": "TGI", "setting": "[17]", "result": "< 10", "unit": "nM"},
      {"measurement": "GI50", "setting": "[18]", "result": "< 10", "unit": "nM"},
      {"measurement": "TGI", "setting": "[18]", "result": 2270, "unit": "nM"},
      {"measurement": "GI50", "setting": "[19]", "result": "< 10", "unit": "nM"},
      {"measurement": "TGI", "setting": "[19]", "result": 12200, "unit": "nM"},
      {"measurement": "GI50", "setting": "[20]", "result": "< 10", "unit": "nM"},
      {"measurement": "TGI", "setting": "[20]", "result": "< 10", "unit": "nM"},
      {"measurement": "GI50", "setting": "[21]", "result": "< 10", "unit": "nM"},
      {"measurement": "TGI", "setting": "[21]", "result": "< 10", "unit": "nM"},
      {"measurement": "GI50", "setting": "[22]", "result": "< 10", "unit": "nM"},
      {"measurement": "TGI", "setting": "[22]", "result": "< 10", "unit": "nM"},
      {"measurement": "GI50", "setting": "[23]", "result": 512, "unit": "nM"},
      {"measurement": "TGI", "setting": "[23]", "result": 6710, "unit": "nM"},
      {"measurement": "GI50", "setting": "[24]", "result": "< 10", "unit": "nM"},
      {"measurement": "TGI", "setting": "[24]", "result": "< 10", "unit": "nM"},
      {"measurement": "GI50", "setting": "[25]", "result": 4460, "unit": "nM"},
      {"measurement": "TGI", "setting": "[25]", "result": 19800, "unit": "nM"},
      {"measurement": "GI50", "setting": "[26]", "result": "< 10", "unit": "nM"},
      {"measurement": "TGI", "setting": "[26]", "result": "< 10", "unit": "nM"},
      {"measurement": "GI50", "setting": "[27]", "result": "< 10", "unit": "nM"},
      {"measurement": "TGI", "setting": "[27]", "result": "< 10", "unit": "nM"},
      {"measurement": "GI50", "setting": "[28]", "result": 31.4, "unit": "nM"},
      {"measurement": "TGI", "setting": "[28]", "result": 179, "unit": "nM"},
      {"measurement": "GI50", "setting": "[29]", "result": "< 10", "unit": "nM"},
      {"measurement": "TGI", "setting": "[29]", "result": "< 10", "unit": "nM"},
      {"measurement": "GI50", "setting": "[30]", "result": "< 10", "unit": "nM"},
      {"measurement": "TGI", "setting": "[30]", "result": 13200, "unit": "nM"},
      {"measurement": "GI50", "setting": "[31]", "result": "< 10", "unit": "nM"},
      {"measurement": "TGI", "setting": "[31]", "result": 173, "unit": "nM"},
      {"measurement": "GI50", "setting": "[32]", "result": "< 10", "unit": "nM"},
      {"measurement": "TGI", "setting": "[32]", "result": "< 10", "unit": "nM"},
      {"measurement": "GI50", "setting": "[33]", "result": "< 10", "unit": "nM"},
      {"measurement": "TGI", "setting": "[33]", "result": 14300, "unit": "nM"},
      {"measurement": "GI50", "setting": "[34]", "result": "< 10", "unit": "nM"},
      {"measurement": "TGI", "setting": "[34]", "result": "< 10", "unit": "nM"},
      {"measurement": "GI50", "setting": "[35]", "result": "< 10", "unit": "nM"},
      {"measurement": "TGI", "setting": "[35]", "result": 1990, "unit": "nM"},
      {"measurement": "GI50", "setting": "[36]", "result": "< 10", "unit": "nM"},
      {"measurement": "TGI", "setting": "[36]", "result": 17.1, "unit": "nM"},
      {"measurement": "GI50", "setting": "[37]", "result": "< 10", "unit": "nM"},
      {"measurement": "TGI", "setting": "[37]", "result": 117, "unit": "nM"},
      {"measurement": "GI50", "setting": "[38]", "result": "< 10", "unit": "nM"},
      {"measurement": "TGI", "setting": "[38]", "result": 12.7, "unit": "nM"},
      {"measurement": "GI50", "setting": "[39]", "result": "< 10", "unit": "nM"},
      {"measurement": "TGI", "setting": "[39]", "result": 1690, "unit": "nM"},
      {"measurement": "GI50", "setting": "[40]", "result": 138, "unit": "nM"},
      {"measurement": "TGI", "setting": "[40]", "result": 3470, "unit": "nM"},
      {"measurement": "GI50", "setting": "[41]", "result": "< 10", "unit": "nM"},
      {"measurement": "TGI", "setting": "[41]", "result": 641, "unit": "nM"},
      {"measurement": "GI50", "setting": "[42]", "result": "< 10", "unit": "nM"},
      {"measurement": "TGI", "setting": "[42]", "result": 15.2, "unit": "nM"},
      {"measurement": "GI50", "setting": "[43]", "result": "< 10", "unit": "nM"},
      {"measurement": "TGI", "setting": "[43]", "result": "< 10", "unit": "nM"},
      {"measurement": "GI50", "setting": "[44]", "result": "< 10", "unit": "nM"},
      {"measurement": "TGI", "setting": "[44]", "result": 14.8, "unit": "nM"},
      {"measurement": "GI50", "setting": "[45]", "result": 37.5, "unit": "nM"},
      {"measurement": "TGI", "setting": "[45]", "result": 15100, "unit": "nM"},
      {"measurement": "GI50", "setting": "[46]", "result": 1730, "unit": "nM"},
      {"measurement": "TGI", "setting": "[46]", "result": 19700, "unit": "nM"},
      {"measurement": "GI50", "setting": "[47]", "result": "< 10", "unit": "nM"},
      {"measurement": "TGI", "setting": "[47]", "result": 11200, "unit": "nM"},
      {"measurement": "GI50", "setting": "[48]", "result": 99, "unit": "nM"},
      {"measurement": "TGI", "setting": "[48]", "result": 19800, "unit": "nM"}
    ]}
  ]
}
